Reference: US11524944B2, “2-phenylpyrimidine-4-carboxamides as AHR inhibitors” (Bayer Aktiengesellschaft, priority 2017, dated 2022)
“And” between values parts separate entries of the source, which are not always exact repeats. Equal values may be shown once.

Legend:
Mouse AhR = molecular target: T1, Mouse AhR (Mus musculus, UniProt P30561); test: Transactivation assay in mouse cell line (in vitro assay 2): antagonism; format: cell-based; settings: Hepa 1c1c7 cells, AHR inducible firefly luciferase reporter (DRE), 200 μM kynurenic acid, 20 hours
T1 sequence (P30561 1-848 P471L/N533S/M589L): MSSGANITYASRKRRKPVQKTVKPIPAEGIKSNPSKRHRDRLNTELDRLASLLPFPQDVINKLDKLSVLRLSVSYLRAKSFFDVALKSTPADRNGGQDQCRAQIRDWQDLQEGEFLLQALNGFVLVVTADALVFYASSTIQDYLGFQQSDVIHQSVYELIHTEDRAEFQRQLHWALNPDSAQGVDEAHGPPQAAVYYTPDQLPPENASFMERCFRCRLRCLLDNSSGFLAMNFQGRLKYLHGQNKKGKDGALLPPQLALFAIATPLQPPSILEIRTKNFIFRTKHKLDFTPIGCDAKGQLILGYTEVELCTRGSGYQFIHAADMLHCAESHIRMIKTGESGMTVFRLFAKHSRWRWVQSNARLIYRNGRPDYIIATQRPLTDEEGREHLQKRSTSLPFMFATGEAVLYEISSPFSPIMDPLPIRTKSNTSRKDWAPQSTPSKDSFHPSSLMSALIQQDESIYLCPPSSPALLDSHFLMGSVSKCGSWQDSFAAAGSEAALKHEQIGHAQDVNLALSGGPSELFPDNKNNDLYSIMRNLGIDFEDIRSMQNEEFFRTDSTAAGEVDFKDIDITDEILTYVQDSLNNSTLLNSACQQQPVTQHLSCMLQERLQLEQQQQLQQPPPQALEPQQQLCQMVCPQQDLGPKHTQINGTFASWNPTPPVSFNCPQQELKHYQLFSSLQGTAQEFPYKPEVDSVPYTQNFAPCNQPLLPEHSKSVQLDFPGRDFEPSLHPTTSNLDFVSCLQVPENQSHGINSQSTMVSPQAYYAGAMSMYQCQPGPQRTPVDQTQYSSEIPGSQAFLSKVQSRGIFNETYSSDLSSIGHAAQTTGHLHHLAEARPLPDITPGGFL
Method: (§1) Examples were tested in selected biological assays one or more times. When tested more than once, data are reported as either average values or as median values, wherein • the average value, also referred to as the arithmetic mean value, represents the sum of the values obtained divided by the number of times tested, and • the median value represents the middle number of the group of values when ranked in ascending or descending order. If the number of values in the data set is odd, the median is the middle value. If the number of values in the data set is even, the median is the arithmetic mean of the two middle values.
Transactivation Assay in Mouse Cell Line (In Vitro Assay 2)
(§2) Transactivation assay was carried out in Hepa 1c1c7 cells (ATCC #CRL-2026) endogenously expressing AHR. In addition the cells were stably transfected with an AHR inducible firefly luciferase reporter gene construct that carried AHR-binding sites (DRE) in its promoter. Kynurenic acid is an endogenous AHR activating ligand and was used to prestimulate test cells prior to testing the antagonistic properties of compounds.
In Vitro Assay 2: Antagonism in Mouse Cell Line
Firefly luciferase activity was determined by the SteadyGlo Luciferase Assay System (Promega, #E2550).

Human AhR = molecular target: T2, Human AhR (Homo sapiens, UniProt P35869); test: Transactivation assay in human cell line (in vitro assay 1): antagonism; format: cell-based; settings: U87 glioblastoma cells, AHR inducible firefly luciferase reporter (DRE), 150 μM kynurenic acid, 20 hours
T2 construct: host or cells: U87 glioblastoma cells, stably transfected with a DRE firefly luciferase reporter and a constitutive renilla reporter
T2 sequence (P35869 11-848): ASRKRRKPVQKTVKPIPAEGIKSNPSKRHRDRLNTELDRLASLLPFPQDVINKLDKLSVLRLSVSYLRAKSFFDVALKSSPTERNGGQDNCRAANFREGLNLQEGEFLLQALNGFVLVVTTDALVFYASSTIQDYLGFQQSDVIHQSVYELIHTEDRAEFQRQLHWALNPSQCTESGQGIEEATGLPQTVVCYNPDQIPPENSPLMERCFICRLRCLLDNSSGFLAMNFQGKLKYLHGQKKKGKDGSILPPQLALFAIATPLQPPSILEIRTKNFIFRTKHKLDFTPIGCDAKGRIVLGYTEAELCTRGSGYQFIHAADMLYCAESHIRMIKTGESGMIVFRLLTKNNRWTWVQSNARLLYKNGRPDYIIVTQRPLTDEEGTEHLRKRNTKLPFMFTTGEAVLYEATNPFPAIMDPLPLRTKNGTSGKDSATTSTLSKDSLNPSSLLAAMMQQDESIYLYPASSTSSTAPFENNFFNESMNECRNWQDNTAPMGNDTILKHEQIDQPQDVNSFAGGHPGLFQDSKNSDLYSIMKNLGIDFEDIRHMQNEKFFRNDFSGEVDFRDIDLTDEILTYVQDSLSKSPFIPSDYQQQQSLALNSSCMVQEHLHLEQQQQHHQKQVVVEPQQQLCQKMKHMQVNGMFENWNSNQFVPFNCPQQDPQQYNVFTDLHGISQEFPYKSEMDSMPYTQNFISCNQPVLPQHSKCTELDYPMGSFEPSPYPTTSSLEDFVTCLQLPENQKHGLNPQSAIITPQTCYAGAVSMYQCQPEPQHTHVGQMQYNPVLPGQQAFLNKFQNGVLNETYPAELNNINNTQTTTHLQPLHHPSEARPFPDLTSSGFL
Method: as §1
Transactivation Assay in Human Cell Line (In Vitro Assay 1)
as §2, with “U87 glioblastoma” for “Hepa 1c1c7”, “(ATCC)” for “(ATCC #CRL-2026)”, “its promoter and a renilla reporter gene construct with constitutively active” for “its”
In Vitro Assay 1: Antagonism in Human Cell Line
Firefly luciferase and Renilla activity was determined by the DualGlo Luciferase Assay System (Promega, #2920). Renilla activity was used to assess toxic effects of compounds.

IC50 (Mouse AhR)	IC50 (Human AhR) [nM]	Compound
397 nM	98.4	C[C@@H](CO)NC(=O)c1cc(-c2ccc(OC(F)(F)F)cc2)nc(-c2ccc(F)c(Cl)c2)n1 [Example 33, 2-(3-chloro-4-fluorophenyl)-N-[(2S)-1-hydroxypropan-2-yl]-6-[4-(trifluoromethoxy)phenyl]pyrimidine-4-carboxamide]
1.28 nM	1.27	C[C@@H](CO)NC(=O)c1cc(-c2ccc(OC(F)(F)F)cc2)nc(-c2cccc(F)c2)n1 [Example 5, 2-(3-Fluorophenyl)-N-[(2S)-1-hydroxypropan-2-yl]-6-[4-(trifluoromethoxy)phenyl]pyrimidine-4-carboxamide]
23.8 nM	35.3	C[C@@H](CO)NC(=O)c1cc(-c2cccc(F)c2)nc(-c2ccc(Cl)cc2)n1 [Example 10, 2-(4-Chlorophenyl)-6-(3-fluorophenyl)-N-[(2S)-1-hydroxypropan-2-yl]pyrimidine-4-carboxamide]
> 20000 nM and 17900 nM	> 20000	C[C@@H](CO)NC(=O)c1cc(-c2ccc(OC(F)(F)F)cc2)nc(-c2ccc(OC(F)(F)F)cc2)n1 [Example 12, N-[(2S)-1-hydroxypropan-2-yl]-2,6-bis[4-(trifluoromethoxy)phenyl]pyrimidine-4-carboxamide]
46.9 nM	26.4	Cc1cccc(-c2nc(C(=O)N[C@@H](C)CO)cc(-c3ccc(OC(F)(F)F)cc3)n2)c1 [Example 31, N-[(2S)-1-hydroxypropan-2-yl]-2-(3-methylphenyl)-6-[4-(trifluoromethoxy)phenyl]pyrimidine-4-carboxamide]
191 nM	29.5	Cc1cc(F)cc(-c2nc(C(=O)N[C@@H](C)CO)cc(-c3ccc(OC(F)(F)F)cc3)n2)c1 [Example 41, 2-(3-fluoro-5-methylphenyl)-N-[(2S)-1-hydroxypropan-2-yl]-6-[4-(trifluoromethoxy)phenyl]pyrimidine-4-carboxamide]
215 nM	19.3	C[C@@H](CO)NC(=O)c1cc(-c2ccc(Cl)cc2)nc(-c2cccc(C#N)c2)n1 [Example 70, 6-(4-chlorophenyl)-2-(3-cyanophenyl)-N-[(2S)-1-hydroxypropan-2-yl]pyrimidine-4-carboxamide]
148 nM	23.5	C[C@@H](CO)NC(=O)c1cc(-c2ccc(Cl)cc2)nc(-c2ccc(F)c(Cl)c2)n1 [Example 66, 2-(3-chloro-4-fluorophenyl)-6-(4-chlorophenyl)-N-[(2S)-1-hydroxypropan-2-yl]pyrimidine-4-carboxamide]
134 nM	48.5	Cc1cc(-c2nc(C(=O)N[C@@H](C)CO)cc(-c3ccc(Cl)cc3)n2)ccc1F [Example 65, 6-(4-chlorophenyl)-2-(4-fluoro-3-methylphenyl)-N-[(2S)-1-hydroxypropan-2-yl]pyrimidine-4-carboxamide]
> 20000 nM	> 20000	CC(C)(O)CNC(=O)c1cc(-c2ccc(C(F)(F)F)cc2)nc(-c2cccc(F)c2)n1 [Example 8, 2-(3-Fluorophenyl)-N-(2-hydroxy-2-methylpropyl)-6-[4-(trifluoromethyl)phenyl]pyrimidine-4-carboxamide]
8.64 nM	15.3	C[C@@H](CO)NC(=O)c1cc(-c2cccc(F)c2)nc(-c2ccc(C(F)(F)F)cc2)n1 [Example 9, 6-(3-Fluorophenyl)-N-[(2S)-1-hydroxypropan-2-yl]-2-[4-(trifluoromethyl)phenyl]pyrimidine-4-carboxamide]
125 nM	11.4	CC(C)(O)CNC(=O)c1cc(-c2ccc(OC(F)(F)F)cc2)nc(-c2cccc(C#N)c2)n1 [Example 20, 2-(3-cyanophenyl)-N-(2-hydroxy-2-methylpropyl)-6-[4-(trifluoromethoxy)phenyl]pyrimidine-4-carboxamide]
> 20000 nM	> 20000	CC(C)(O)CNC(=O)c1cc(-c2ccc(OC(F)(F)F)cc2)nc(-c2cccc(F)c2)n1 [Example 7, 2-(3-Fluorophenyl)-N-(2-hydroxy-2-methylpropyl)-6-[4-(trifluoromethoxy)phenyl]pyrimidine-4-carboxamide]
697 nM	525	C[C@@H](CO)NC(=O)c1cc(-c2ccc(OC(F)(F)F)cc2)nc(-c2ccc(Cl)cc2)n1 [Example 29, 2-(4-chlorophenyl)-N-[(2S)-1-hydroxypropan-2-yl]-6-[4-(trifluoromethoxy)phenyl]pyrimidine-4-carboxamide]
7120 nM	> 20000	CC(C)(O)CNC(=O)c1cc(-c2ccc(Cl)cc2)nc(-c2ccc(C(F)F)cc2)n1 [Example 61, 6-(4-chlorophenyl)-2-[4-(difluoromethyl)phenyl]-N-(2-hydroxy-2-methylpropyl)pyrimidine-4-carboxamide]
161 nM	24.4	CC(C)(O)CNC(=O)c1cc(-c2ccc(Cl)cc2)nc(-c2ccc(F)cc2)n1 [Example 45, 6-(4-chlorophenyl)-2-(4-fluorophenyl)-N-(2-hydroxy-2-methylpropyl)pyrimidine-4-carboxamide]
108 nM	220	C[C@@H](CO)NC(=O)c1cc(-c2ccc(OC(F)(F)F)cc2)nc(-c2ccc(F)cc2)n1 [Example 28, 2-(4-fluorophenyl)-N-[(2S)-1-hydroxypropan-2-yl]-6-[4-(trifluoromethoxy)phenyl]pyrimidine-4-carboxamide]
6.91 nM	6.43	O=C(NC1CCCC(F)(F)C1O)c1cc(-c2ccc(OC(F)(F)F)cc2)nc(-c2cccc(F)c2)n1 (stereo not shown) [Example 80, N-(3,3-difluoro-2-hydroxycyclohexyl)-2-(3-fluorophenyl)-6-[4-(trifluoromethoxy)phenyl]pyrimidine-4-carboxamide]
5150 nM	392	COc1ccc(-c2nc(C(=O)N[C@@H](C)CO)cc(-c3ccc(Cl)cc3)n2)cc1 [Example 63, 6-(4-chlorophenyl)-N-[(2S)-1-hydroxypropan-2-yl]-2-(4-methoxyphenyl)pyrimidine-4-carboxamide]
180 nM	18.4	C[C@@H](CO)NC(=O)c1cc(-c2ccc(OC(F)(F)F)cc2)nc(-c2cccc(C#N)c2)n1 [Example 36, 2-(3-cyanophenyl)-N-[(2S)-1-hydroxypropan-2-yl]-6-[4-(trifluoromethoxy)phenyl]pyrimidine-4-carboxamide]
